The record followed here is patent US9839648B2, “Combined anti-acid-fast bacterial agent, screening method for anti-acid-fast bacterial agents, and activity inhibitor of WecA or ortholog thereof” (MICROBIAL CHEMISTRY RESEARCH FOUNDATION, priority 2013, dated 2017).

Converted amounts (≈) assume the structure as drawn.

The subject of one assay is B. subtilis 168/pHYcatA. Put plainly: MIC by microbroth dilution method, control strain with pHYcat.
For assay [1], the system named is B. subtilis CPZB-resistant strain. The assay can be described thus: MIC by microbroth dilution method, CPZB-resistant strain.
The test system of assay [2] is B. subtilis 168/pHYcat-mraY. Put plainly: MIC by microbroth dilution method, mraY highly expressing strain.
Assay [3] deals with B. subtilis 168/pHYcat-tagO. The assay can be described thus: MIC by microbroth dilution method, tagO highly expressing strain.
Assay [4] has as its system B. subtilis 168 (parent strain). The assay can be described thus: MIC by microbroth dilution method, parent strain.
A further assay concerns Bacillus subtilis PCI219. Put plainly: MIC by agar dilution method (other than Mycobacteria). Type of assay: cell-based. As to conditions: Mueller-Hinton agar, 37° C., 18 hours.
A further assay addresses T1, TagO (Bacillus subtilis, UniProt O34753).
T1 construct: using disruption liquids of bacterial cells of the 168/pHYcat-mraY strain and the 168/pHYcat-tagO highly expressing these enzymes; expressed in transfected cells; host or cells: Bacillus subtilis 168 carrying plasmid pHYcat-tagO; supernatant of sonicated cells
The assay can be described thus: Measurement of TagO activity with disruption liquid of 168/pHYcat-tagO cells. Type of assay: biochemical. Particulars: compared with caprazamycin B, tunicamycin, vancomycin, levofloxacin; FIG. 9A. The protocol: The activities of enzymes MraY and TagO were measured in the following manner using disruption liquids of bacterial cells of the 168/pHYcat-mraY strain and the 168/pHYcat-tagO highly expressing these enzymes and produced in Test Example 3-2.
As a control, tunicamycin, vancomycin and levofloxacin were tested similarly.
The bacterial cells were cultured in an LB medium until logarithmic growth phase (OD600=0.4) and then collected through centrifuging (5,000 rpm, 10 min), followed by washing twice with a TMS buffer (50 mM Tris-HCl (pH 7.5), 625 mM sucrose, 10 mM MgCl2, 5 mM 3-mercapto-1,2-propanediol, 1 mM PMSF).
Next, the precipitate was re-suspended in a TMS buffer having a volume 1/40 the initial volume, and the bacterial cells were disrupted through probe sonication (where the following procedure was repeated 10 times on ice: disrupting them for 30 sec and leaving them stand still for 30 sec). […]
The TagO activity was measured by allowing 0.02 mL of the following reaction mixture to react at 30° C. for 1 hour.
Next, the lower layer containing the reaction product was analyzed through thin-layer chromatography (TLC, using as a developing solvent chloroform:methanol:water:concentrated aqueous ammonia=65:35:4:4) and autoradiography, to thereby calculate the enzymatic activity of TagO as a rate with respect to that of the control. […]

In the next assay the test system is Escherichia coli K-12. The assay can be described thus: MIC by agar dilution method (other than Mycobacteria). Type of assay: cell-based. Particulars: K12, Mueller-Hinton agar, 37° C., 18 hours.
Another assay deals with B. subtilis 168 strain. Type of assay: cell-based, Bacillus subtilis. Particulars: [14C(U)]glycerol, FIGS. 7A, 7C.
In a further assay the test system is Str. pneumoniae CR-2. Put plainly: MIC by agar dilution method (other than Mycobacteria).
Assay [5] has as its target WecA of Mycobacterium smegmatis (Mycolicibacterium smegmatis, UniProt A0R211). Put plainly: biochemical.
Another assay has as its system Staph. aureus MRSA No. 5. Put plainly: MIC by agar dilution method (other than Mycobacteria).
In assay [6] the test system is Enterococcus faecalis JCM 5803. The assay is described as above. Type of assay: cell-based. Particulars: JCM5803, Mueller-Hinton agar, 37° C., 18 hours.
In assay [7] the test system is Staphylococcus aureus FDA209P. Described as above. Type of assay: cell-based.
In assay [8] the test system is Ent. faecalis NCTC12203 (VRE). The description is as above. As to conditions: Enterococcus faecalis, 18 h.
The next assay concerns Mycobacterium bovis BCG. The assay can be described thus: microbe, parasite or virus in culture. Type of assay: cell-based. Particulars: Mycobacterium tuberculosis variant bovis BCG.
In assay [9] the test system is Mycobacterium tuberculosis H37Rv. The assay can be described thus: MIC by agar dilution method (Mycobacteria). In kind it is cell-based. Particulars: 7H10 agar, 37° C., 2 to 14 days. The protocol:
The MIC for Mycobacteria was measured by an agar dilution method.

Assay [10] deals with Streptococcus pneumoniae S-223. Put plainly: MIC by agar dilution method (other than Mycobacteria). In kind it is cell-based.
The subject of another assay is Bacillus subtilis 168. The assay is described as above. Particulars: Mueller-Hinton agar, 37° C., 18 hours. Type of assay: cell-based.

For the molecule `CN[C@H](CC(C)C)C(=O)N[C@H]1C(=O)N[C@@H](CC(N)=O)C(=O)N[C@H]2C(=O)N[C@H]3C(=O)N[C@H](C(=O)N[C@H](C(=O)O)c4cc(O)cc(O)c4-c4cc3ccc4O)[C@H](O)c3ccc(c(Cl)c3)Oc3cc2cc(c3O[C@@H]2O[C@H](CO)[C@@H](O)[C@H](O)[C@H]2O[C@H]2C[C@](C)(N)[C@H](O)[C@H](C)O2)Oc2ccc(cc2Cl)[C@H]1O` [vancomycin, reference compound], the MIC worked out at 0.5 µg/mL (≈ 0.345 µM) against B. subtilis 168/pHYcatA (Bacillus subtilis, 168/PHYCATA); 0.25 µg/mL (≈ 0.173 µM) in assay [1] (Bacillus subtilis, 16 h); 0.5 µg/mL (≈ 0.345 µM) in assay [2] (Bacillus subtilis); 1 µg/mL (≈ 0.69 µM) in assay [3] (Bacillus subtilis); 0.25 µg/mL (≈ 0.173 µM) in [4] (Bacillus subtilis, 16 h).

As to tunicamycin [reference compound], the MIC with B. subtilis 168/pHYcatA (B. subtilis 168/pHYcatA (control strain), microbroth dilution, LB medium) is 1 µg/mL; in [1] (B. subtilis CPZB-resistant strain, microbroth dilution, LB medium, 37° C., 16 hours), 4 µg/mL; in [2] (B. subtilis 168/pHYcat-mraY (mraY highly expressing), microbroth dilution, LB medium), 1 µg/mL; in assay [3] (B. subtilis 168/pHYcat-tagO (tagO highly expressing), microbroth dilution, LB medium), 16 µg/mL; in assay [4] (B. subtilis 168 (parent strain), microbroth dilution, LB medium, 37° C., 16 hours), 0.25 µg/mL.

Turning to `CCCCc1ccc(NC(=O)C2=CCN(C)[C@@H]([C@H](O[C@@H]3O[C@H](CN)C(O)C3O)[C@H]3O[C@@H](n4ccc(=O)[nH]c4=O)C(O)C3O)C(=O)N2C)cc1` (stereo partly drawn) [CPZEN-45], the MIC with Bacillus subtilis PCI219 is 1.56 µg/mL (≈ 2.27 µM); against Escherichia coli K-12 it was above 100 µg/mL; against B. subtilis 168/pHYcatA (Bacillus subtilis, 168/PHYCATA) it was 8 µg/mL (≈ 11.6 µM); in [1] (Bacillus subtilis, 16 h), 4 µg/mL (≈ 5.81 µM); in assay [2] (Bacillus subtilis), 8 µg/mL (≈ 11.6 µM); against Str. pneumoniae CR-2 (Streptococcus pneumoniae, CR2, 18 h), 128 µg/mL (≈ 186 µM). Moreover, the MIC in [3] (Bacillus subtilis) came out at 64 µg/mL (≈ 92.9 µM); against Staph. aureus MRSA No. 5 (Staphylococcus aureus, MRSA, 18 h) it was 100 µg/mL (≈ 145 µM); in assay [6], 8 µg/mL (≈ 11.6 µM); in assay [7] (Staphylococcus aureus FDA209P, agar dilution, Mueller-Hinton agar, 37° C., 18 hours), 12.5 µg/mL (≈ 18.1 µM); in [8] it was 8 µg/mL (≈ 11.6 µM); in the assay with Mycobacterium bovis BCG it was 2 µg/mL (≈ 2.9 µM). Further, the MIC came to 4 µg/mL (≈ 5.81 µM) in assay [4] (Bacillus subtilis, 16 h); 1.56 µg/mL (≈ 2.27 µM) in assay [9]; 16 µg/mL (≈ 23.2 µM) in assay [10] (S223, Streptococcus pneumoniae S-223, agar dilution, Mueller-Hinton agar, 37° C., 18 hours); 4 µg/mL (≈ 5.81 µM) against Bacillus subtilis 168. Also, the “enzymatic activity of TagO (inhibition)” value at TagO is “the most strongly”. Moreover, the “incorporation into bacterial cells of glycerol (synthesis of teichoic acid)” value with B. subtilis 168 strain is “inhibited”. The “antibacterial activity (in words)” value in the assay on Str. pneumoniae CR-2 (Str. pneumoniae CR-2 strain, has no WecA or ortholog) is “no antibacterial activity”; in the assay with Staph. aureus MRSA No. 5 (Staph. aureus MRSA No. 5 strain, WecA or ortholog not essential for growth), “no antibacterial activity”; in [7] (Staphylococcus aureus FDA209 strain, WecA or ortholog not essential for growth), “no antibacterial activity”; in assay [10] (Streptococcus pneumoniae S-223 strain, has no WecA or ortholog), “no antibacterial activity”. This molecule showed an IC50 in [5] of 6.39 nM.
